The subject of one assay is PD-L2 gene expression. Put plainly: PD-L2 gene expression (qPCR) in MM BMMCs co-cultured with THP-1 monocytes. In kind it is cell-based, human. To be noted: BMMCs from MM patient #3041 co-cultured with THP-1 monocytes, RUX 1 μM, 48 hours. The protocol:
MM patient #3041 bone marrow mononuclear cells were co-cultured with THP-1 monocytes with or without RUX (from […] to 10 μM) for 48 hours.
Next, we investigated the effects of ruxolitinib (RUX) on PD-L1 and PD-L2 gene expression in MM bone marrow mononuclear cells (BMMCs) co-cultured with THP-1 monocytes. THP-1 monocytes co-cultured with primary BMMCs from MM patient #3041 were grown in the presence or absence of RUX (1 μM).
(In general: Real-time PCR tracks product formation cycle by cycle.)

Another assay relates to multiple myeloma. The note with it: Phase 1 clinical trial NCT00639002; cited from earlier work.
The test system of assay [1] is PD-L1 gene and protein expression. Put plainly: PD-L1 gene and protein expression in MM tumor cells alone or co-cultured with stromal cells (Example 11). In kind it is cell-based, human. To be noted: concentration dependent pattern. The protocol: BM mononuclear cells (MCs) and serum were collected from MM patients and healthy subjects after obtaining IRB approval. Single-cell suspensions were prepared from human MM LAGκ-1A xenografts which had been grown in the mice. The cells were cultured and treated with or without RUX and then were determined by qPCR, flow cytometric analysis, ELISA, and western blot.
We further investigated the effects of RUX on PD-L1 and PD-L2 expression in primary and stromal cells from MM patients' BM samples in vitro. […] We then determined whether RUX can augment the anti-MM effects of T-cells in vitro. […] To evaluate the efficacy of drugs in vivo, severe combined immune deficient mice implanted with the human MM xenograft LAGκ-2 were treated with RUX (30 mg/kg).

SMILES strings stand for the structures. “Also recorded” adds a separate entry of the source.

Take `N#CC[C@H](C1CCCC1)n1cc(-c2ncnc3[nH]ccc23)cn1` [RUX, ruxolitinib]: in the assay on PD-L2 gene expression, the “PD-L2 gene expression in MM BMMCs” value is “marked decrease; also recorded: inhibits”. For the same compound, in the assay with multiple myeloma, the “efficacy of monotherapy for multiple myeloma” value was “ineffective”. In addition, in assay [1], the “PD-L1 gene and protein expression in MM tumor cells” value is on record as “markedly reduced”.

Values taken from patent US20220000872A1, “METHOD OF ENHANCING IMMUNE-BASED THERAPY” (OncoTracker, Inc., priority 2018, published 2022).
